The values below come from US20090087425A1, “Combination of nitroderivatized steroid and bronchodilator for treating respiratory disease” (Topigen Pharmaceuticals Inc., priority 2007, published 2009).

Experiment [1] relates to bronchoconstriction induced by histamine. The experiment is described as follows: Histamine-induced bronchoconstriction in conscious guinea-pigs, whole body plethysmography (sGaw). In kind it is in vivo, guinea-pig. The note with it: for Duration of significant reduction of AHR after treatment: TPI-1020 0.3 mg/ml, or TPI-1020 0.3 mg/ml + salbutamol 20 μg/ml.
For experiment [2] the following is noted: asthmatic patients, cited from earlier work.
In another experiment the test system is muscarinic receptors. To be noted: cited from earlier work.
Experiment [3] concerns bronchoconstriction induced by methacholine. The experiment is described as follows: Methacholine-induced bronchoconstriction in conscious guinea-pigs, whole body plethysmography (sGaw). The class given is in vivo, guinea-pig. The protocol: Groups of six male Dunkin-Hartley guinea-pigs, weighing 350-450 g were used throughout. Animals received food and water ad libitum and lighting was maintained in the room (22+/−2° C.) on a 12 h cycle. This work complied with the guidelines for the care and use of laboratory animals according to the Animals (Scientific Procedures) Act 1986.
Whole body plethysmography of the conscious guinea-pig was used to monitor airway function, recorded as specific airways conductance (sGaw). The method was as described by Griffiths-Johnson et al. (J. Pharmacol. Meth. 1988; 11:233-240), although a computerized data acquisition system replaced the original oscilloscope and angle resolver (Danahay et al. Clin. Exp. Allergy 1997; 28:513-522). Animals were fitted with a face mask and placed in a restrainer which was then slid into the plethysmograph chamber. The computer ran AcqKnowledge software using a Biopack data acquisition system. This system was capable of acquiring and storing data referring to the air across a pneumotachograph (Mercury FIL) as the animal breathed. The resulting change in box volume (pressure) was simultaneously measured.
Changes in air flow and box pressure were measured using UP1 and UP2 pressure transducers, respectively. The resulting waveforms could then be rapidly analysed by comparing the gradients of the flow and the box pressure waves at a point where flow tended towards zero, i.e. end tidal flow. A function of these two parameters, allowing for air pressure and the weight of the animal, gave the resulting value for specific airway conductance (sGaw). A minimum of five breaths were analysed for each animal at each time point to arrive at a mean value, which is the reported value.
In the experimental examples described herein, the reported values for sGaw measurements were taken following histamine or […] without treatment. This pre-treatment sGaw value measured after histamine or methacholine challenge, by convention, determined 100% bronchoconstriction for the animal. Following treatment with the experimental agents, including agents which are part of the subject invention, sGaw values (level of bronchoconstriction) were reported as a percentage of the pre-treatment value. Thus, a 10% post-treatment sGaw value, as compared to the 100% pre-treatment sGaw, is a 90% reduction in bronchoconstriction, or 90% reduction of airway hyperresponse (AHR). A 20% post-treatment sGaw value corresponds to an 80% reduction in bronchoconstriction or AHR. Thus, the lower the post-treatment sGaw value, the better the reduction of bronchoconstriction and AHR. For purposes of the subject invention, the more desired response is a lower sGaw value (less histamine- or methacholine-induced bronchoconstriction, and less AHR).
All drugs or vehicle were delivered as a whole body exposure chamber. […]
Tiotropium is an antimuscarinic or anticholinergic bronchodilator, different from the beta-agonist bronchodilators, such as salbutamol, described above. Baseline readings were taken on Day 1 prior to treatment (Pre-treatment) to determine 100% bronchoconstriction or AHR induced by methacholine. Recordings of sGaw were made at 0, 5 and 10 minutes after the […] (Post-treatment). The sGaw values of Day 3 are expressed as a percentage of Day 1 sGaw values following methacholine challenge (Pre-treatment), which is by definition set at 100%. Each point represents the mean+/−S.E.M. (n=6). Statistical significance was determined for p<0.05 using Student's paired t-test.
On Day 3, animals were treated with vehicle, alone, or with 1.0, 3.0, or 10.0 ug/ml of tiotropium. […] A dose of 0.1 µg/ml of tiotropium provided less than 40% reduction of AHR.

Experiment [4] has as its system recruitment of inflammatory cells (neutrophils). To be noted: cited from earlier work.
The mark [5] stands for this setting: FIG. 1B, budesonide 0.44 mg/ml, equimolar to 0.63 mg/ml TPI-1020.
[6] abbreviates: FIG. 2B, budesonide 0.44 mg/ml, equimolar to 0.63 mg/ml TPI-1020.
[7] abbreviates: FIG. 3, salbutamol 30 μg/ml, 30 mins before histamine.
Where [8] appears, read: FIG. 3, salbutamol 30 μg/ml, 60 mins before histamine.
Where [9] appears, read: FIG. 3, salbutamol 30 μg/ml, 90 mins before histamine.
Setting [10] is: FIG. 2D, TPI-1020 0.11 mMl (0.1 mg/ml in text).
Where [11] appears, read: FIG. 3, TPI-1020 0.3 mg/ml, 30 mins before histamine.
Setting [12] is: FIG. 3, TPI-1020 0.3 mg/ml, 60 mins before histamine.
[13] abbreviates: FIG. 3, TPI-1020 0.3 mg/ml, 90 mins before histamine.

Several values for one entry are separate records, joined by “and”; a condition that tells them apart may be missing. Equal values may be shown once. Entries after “also recorded” stand apart in the source; their conditions may differ. Read-outs that look alike come from different tables or passages of the source.

As for `CC(=O)N[C@H](C(=O)O)C(C)(C)SN=O` (racemic) [SNAP, S-nitroso-N-acetylpenicillamine], the “% Inhibition” value in experiment [1] (FIG. 2C, SNAP 0.15 mg/ml) was 20% and 19%; in experiment [1] (FIG. 2C, SNAP 0.31 mg/ml) it was 47%; in experiment [1] (FIG. 2D, SNAP 0.7 mM), 19%. Moreover, the “Post-treatment (% sGaw)” value in experiment [1] (FIG. 2C, SNAP 0.15 mg/ml) is on record as −81.2 % sGaw; in experiment [1] (FIG. 2C, SNAP 0.31 mg/ml), −52.6 % sGaw; in experiment [1] (FIG. 2D, SNAP 0.7 mM) it was −81.2 % sGaw.

As for `CCCC1O[C@@H]2C[C@H]3[C@@H]4CCC5=CC(=O)C=C[C@]5(C)[C@H]4[C@@H](O)C[C@]3(C)[C@]2(C(=O)CO)O1` (stereo partly drawn) [Budesonide, budesonide], the “% Inhibition” value in experiment [1] (setting [5]) is reported as 35%; in experiment [1] (setting [6]) it was 35%; in experiment [1] (FIG. 2B, budesonide 0.44 mg/ml, equimolar to 0.63 mg/ml TPI-1020, listed as budesonide), 40%; in experiment [1] (FIG. 2D, budesonide 0.11 mM), 18%. Moreover, the “Post-treatment (% sGaw)” value is on record as −65.2 % sGaw in experiment [1] (setting [5]); −65.2 % sGaw in experiment [1] (setting [6]); −81.8 % sGaw in experiment [1] (FIG. 2D, budesonide 0.11 mM).

Consider `COc1ccc(CC(C)NCC(O)c2ccc(O)c(NC=O)c2)cc1` (stereo not drawn) [Formoterol, formoterol], for which the Duration of bronchodilation is 8 h in experiment [2] (dose 6 μg), 10 h in experiment [2] (dose 12 μg) and 12 h in experiment [2] (dose 24 μg).

Consider `CC(C)(C)NCC(O)c1ccc(O)c(CO)c1` (stereo not drawn) [Salbutamol, salbutamol], for which the “% Inhibition” value is 12% in experiment [1] (FIG. 1C, salbutamol 3 μg/ml); “no significant inhibition effect” in experiment [1] (FIG. 1C, salbutamol 3 μg/ml, listed as salbutamol); 3% in experiment [1] (FIG. 1C, salbutamol 10 μg/ml); “no significant inhibition effect” in experiment [1] (FIG. 1C, salbutamol 10 μg/ml, listed as salbutamol); 20% in experiment [1] (FIG. 1C, salbutamol 20 μg/ml); 84% in experiment [1] (FIG. 1C, salbutamol 30 μg/ml). Besides, the “% Inhibition” value was 85% in experiment [1] (FIG. 1C, salbutamol 30 μg/ml, listed as salbutamol); 11% in experiment [1] (FIG. 2D, salbutamol 20 μg/ml); “insignificant reduction of AHR; also recorded: do not significantly reduce AHR” in experiment [1] (FIG. 2D, salbutamol 20 μg/ml, listed as salbutamol); 84% in experiment [1] (setting [7]); 47% in experiment [1] (setting [8]); 9% in experiment [1] (setting [9]). The “Post-treatment (% sGaw)” value in experiment [1] (FIG. 1C, salbutamol 3 μg/ml) was −87.6 % sGaw; in experiment [1] (FIG. 1C, salbutamol 10 μg/ml), −96.7 % sGaw; in experiment [1] (FIG. 1C, salbutamol 20 μg/ml), −80.1 % sGaw; in experiment [1] (FIG. 1C, salbutamol 30 μg/ml), −15.6 % sGaw; in experiment [1] (FIG. 2D, salbutamol 20 μg/ml), −89.0 % sGaw; in experiment [1] (setting [7]), −15.6 % sGaw. In addition, the “Post-treatment (% sGaw)” value in experiment [1] (setting [8]) is −52.7 % sGaw; in experiment [1] (setting [9]) it was −91.4 % sGaw. Moreover, the “Duration of significant reduction of AHR after treatment” value in experiment [1] (FIG. 3, salbutamol 30 μg/ml) was found to be 60 min.

Turning to `C[N+]1(C)[C@@H]2C[C@@H](OC(=O)C(O)(c3cccs3)c3cccs3)C[C@H]1[C@@H]1O[C@@H]12` [Tiotropium, tiotropium], in the experiment on muscarinic receptors, the “Selectivity for specific muscarinic receptors” value is on record as “does not display selectivity for specific muscarinic receptors”. Further, the “% Inhibition” value in experiment [3] (FIG. 5A, tiotropium 1 μg/ml) was 35%; in experiment [3] (FIG. 5A, tiotropium 3 μg/ml) it was 73%; in experiment [3] (FIG. 5A, tiotropium 3 μg/ml, listed as tiotropium) it was “about 75%”; in experiment [3] (FIG. 5A, tiotropium 10 μg/ml), around 85%; in experiment [3] (FIG. 5C, tiotropium 1 μg/ml), 35%. Also, the “Post-treatment (% sGaw)” value in experiment [3] (FIG. 5A, tiotropium 1 μg/ml) is −65.2 % sGaw; in experiment [3] (FIG. 5A, tiotropium 3 μg/ml), −26.7 % sGaw; in experiment [3] (FIG. 5A, tiotropium 10 μg/ml), −14.9 % sGaw; in experiment [3] (FIG. 5C, tiotropium 1 μg/ml), −65.2 % sGaw.

In the case of “budesonide 21-(4′-nitrooxymethyl)benzoate [TPI-1020]”, the “Post-treatment (% sGaw)” value in experiment [3] (FIG. 5B, TPI-1020 0.1 mg/ml, 30 mins before methacholine) is −94.0 % sGaw; in experiment [3] (FIG. 5B, TPI-1020 0.1 mg/ml, 90 mins before methacholine), −86.9 % sGaw; in experiment [3] (FIG. 5B, TPI-1020 0.3 mg/ml, 30 mins before methacholine) it was −18.4 % sGaw; in experiment [3] (FIG. 5B, TPI-1020 0.3 mg/ml, 90 mins before methacholine) it was −65.3 % sGaw; in experiment [3] (FIG. 5C, TPI-1020 0.1 mg/ml), −86.9 % sGaw; in experiment [1] (FIG. 2A, TPI-1020 0.1 mg/ml), −83.2 % sGaw. For the same compound, the “Post-treatment (% sGaw)” value in experiment [1] (FIG. 2A, TPI-1020 0.3 mg/ml) is −49.5 % sGaw; in experiment [1] (FIG. 2A, TPI-1020 0.63 mg/ml), −27.9 % sGaw; in experiment [1] (setting [10]) it was −83.2 % sGaw; in experiment [1] (setting [11]), −49.5 % sGaw; in experiment [1] (setting [12]) it was −92.7 % sGaw; in experiment [1] (setting [13]), −120.1 % sGaw. For the same compound, the “Post-treatment (% sGaw)” value in experiment [1] (FIG. 4B, TPI-1020 0.1 mg/ml) was −83.2 % sGaw; in experiment [1] (FIG. 4B, TPI-1020 0.3 mg/ml) it was −120.3 % sGaw. The “% Inhibition” value is 20% and 21% in experiment [1] (FIG. 1A, TPI-1020 0.1 mg/ml inhaled 15 min before 3 mM histamine); 48% in experiment [1] (FIG. 1A, TPI-1020 0.3 mg/ml); 95% in experiment [1] (FIG. 1A, TPI-1020 0.63 mg/ml); 48% and 50% in experiment [1] (FIG. 2A, TPI-1020 0.3 mg/ml); 80% and 72% in experiment [1] (FIG. 2A, TPI-1020 0.63 mg/ml); “insignificant reduction of AHR” in experiment [1] (setting [10]). Further, the “% Inhibition” value is 50% in experiment [1] (setting [11]); 7% in experiment [1] (setting [12]); −20% in experiment [1] (setting [13]); 17% in experiment [1] (FIG. 4B, TPI-1020 0.1 mg/ml); −20% in experiment [1] (FIG. 4B, TPI-1020 0.3 mg/ml). The “Duration of significant reduction of AHR after treatment” value in experiment [1] (FIG. 3, salbutamol 30 μg/ml) was found to be 30 min. For the same compound, the “Release in the lung of key mediators of inflammation” value in experiment [4] (pre-clinical studies) is recorded as “significantly reduce release in the lung of key mediators of inflammation”. In addition, the “Recruitment of inflammatory cells (neutrophils)” value in experiment [4] (rodent models of airway inflammation and pulmonary disease) is “significantly block the recruitment of inflammatory cells (neutrophils)”.

What is called % Inhibition is the relative decrease from the control value, in per cent.
